The nature of experiment [1]: Compound was tested for antagonism of Prostaglandin E2 receptor activity in guinea pig ileum assay based on the dose ratio at 3 uM. To be noted: read-out: pA2 (converted).
The test system of another experiment is Mus musculus. Put plainly: Compound was tested for analgesic activity in the mouse writhing assay at intragastric dose of 30 mg/Kg. Type of experiment: functional. The following applies: po. In general terms: An intraperitoneal irritant provokes the stretching counted in writhing tests.

Molecules are shown by their SMILES.

In general, ED50 refers to the dose at which the effect has come halfway, by size or by number of responders.

With `O=C(CC[S+]([O-])Cc1ccco1)NNC(=O)N1Cc2ccccc2Oc2ccc(Cl)cc21` (configuration not stated), the Kb in experiment [1] was 631 nM. In addition, the ED50 in the experiment with Mus musculus turned out to be 5 mg/kg. In the experiment with Mus musculus, `O=C(CCSCc1ccco1)NNC(=O)N1Cc2ccccc2Oc2ccc(Cl)cc21` yielded an ED50 of 0.9 mg/kg. `O=C(CCS(=O)(=O)Cc1ccco1)NNC(=O)N1Cc2ccccc2Oc2ccc(Cl)cc21`: in experiment [1], the Kb is 251 nM. In the experiment with Mus musculus, this molecule returned an ED50 of 5 mg/kg.

`O=C(CCCCCl)NNC(=O)N1Cc2ccccc2Oc2ccc(Cl)cc21` [PINADOLINE]: in experiment [1], the Kb is 631 nM. In the experiment on Mus musculus, it took a dose of 9.8 mg/kg to reach the 50% effect level (ED50).
